Data taken from patent publication US8449886B2, “Combination of anti-CTLA4 antibody with tubulin modulating agents for the treatment of proliferative diseases” (Bristol-Myers Squibb Company, priority 2008, dated 2013).

Assays:
SA1N fibrosarcoma = SA1N fibrosarcoma tumor model, subcutaneous, established tumors; assay type: in vivo, mice; conditions: for T − C: target size 500 mm^3; for % TGI: IP every 4 days x3, ixabepilone 8 mg/kg, CTLA-4 mAb 20 mg/kg
Protocol: Antibody UC10 (hamster IgG anti-mouse CTLA-4) was produced and purified by BMS (Protein Therapeutics Division, Hopewell, N.J., USA). […] Stock solutions of anti-CTLA-4 were kept at −80° C. and were thawed out at 4° C. prior to use. Control antibody consisted of a polyclonal hamster IgG (Jackson ImmunoResearch, West Grove, Pa.). Dosing solutions of Anti-CTLA-4 and hamster IgG control were prepared weekly in sterile phosphate buffered saline (pH 7.0).
Eight to twelve week-old female BALB/c, A/J or C57/BL6 mice were purchased from Harlan, Indianapolis, Ind. Mice received food and water ad libitum, and were maintained in a controlled environment according to AALAC regulations.
(§1) Tumor cell lines were maintained in vitro. Treatments were initiated when the subcutaneous tumors reached a median size between 100-200 mm^3 (established model) or prior to detection (initiation model). Tumors were measured twice weekly and tumor size (mm^3) was calculated as […]. Body weights were obtained weekly. The tumor models used in these studies are outlined in Table 1.
(§2) The dose levels, routes and dosing schedules are indicated for each particular study described below. Antibodies and chemotherapeutic agents were administered intraperitoneally (i.p.). Each treatment regimen consisted of a cohort of eight to ten mice. Anti-tumor activity, defined as percentage tumor growth inhibition, was calculated as follows: % Tumor Growth Inhibition=100−[(Tt/To)/(Ct/Co)]/100−(Ct/Co) where,
Tt=median tumor size of treated group at the end of treatment
To=median tumor size of treated group at treatment initiation
Ct=median tumor size of control group at the end of treatment
Co=median tumor size at treatment initiation
(§3) In addition, another parameter used to define efficacy was to determine time to tumor progression to target size (T-C), where the time (days) for the median tumor size of control (C) mice to reach target size was subtracted to the time for median tumor size of treated (T) mice to reach target size.
Nonparametric analysis using the Wilcoxon test was used to determine statistical significance.
SA1N fibrosarcoma is an inherently immunogenic tumor line which is sensitive to the effects of CTLA-4 blockade. […] Animals were implanted with SA1N cells subcutaneously and treatments were initiated when tumors reached 100-150 mm^3. Experimental groups consisted of cohorts of 8 mice. […] In the combination groups, CTLA-4 mab was administered one day after each chemotherapy treatment.

CT26 colon carcinoma = CT26 colon carcinoma tumor model; assay type: in vivo, mice; conditions: for antitumor effect in CT26: footnotes and FIG. 2
Protocol: as §1
as §2, with “where, […]” for “where,”

M109 lung carcinoma [1] = experiment: M109 lung carcinoma tumor model, initial tumor implantation; assay type: in vivo, mice; conditions: for antitumor effect in M109: Study 40, text and FIG. 1
Protocol: as §1, §2
In these studies treatments with chemotherapeutic agents were initiated when tumors were palpable, on day 3 after tumor implantation. […] As in the studies conducted in the SA1N and EMT-6 tumor lines, CTLA-4 mAb was dosed one day after treatment with chemotherapy.

EMT-6 mammary carcinoma = EMT-6 mammary carcinoma tumor model; assay type: in vivo, mice; conditions: Study 27; for T − C: IP, treatment from day 3/4, ixabepilone 8 mg/kg, paclitaxel 24 mg/kg, CTLA-4 mAb 20 mg/kg
Protocol: as §1, §2, §3

[2] = test system: paclitaxel-sensitive (A2780, HCT116 and LS174T) and paclitaxel-resistant human colon tumors (HCT116NM46), ovarian carcinoma (Pat-7 and A2780Tax) and breast …; experiment: Preclinical pharmacology studies of Compound 1 in tumor models; assay type: in vivo
M109 lung carcinoma [3] = experiment: M109 rechallenge of tumor-free mice with a lethal M109 cell inoculum; assay type: in vivo; conditions: tumor-free mice by day 97 rechallenged; 5 ixabepilone mice, 8 combination mice
Protocol: To determine whether the combination of CTLA-4+ixabepilone produced a memory immune response able to reject a secondary tumor challenge, animals free of tumors by day 97 were re-challenge with a lethal M109 cell inoculum. For this part of the study, M109 cells were injected into: a) 10 naïve mice (to control for tumor growth); and in study mice free of tumors: b) 5 mice previously treated with ixabepilone and c) 8 mice previously treated with ixabepilone+CTLA-4 mAb. All control mice developed progressive tumors with a median tumor size of 1000 mm^3 10 days later whereas 4 out of 5 mice in the Ixabepilone-treated mice developed tumors (80%).

[4] = test system: SA1N fibrosarcoma, M109 lung carcinoma, EMT-6 mammary carcinoma, CT-26 colon carcinoma and B16 melanoma; experiment: Efficacy studies of CTLA-4 mAb with ixabepilone or paclitaxel across murine tumor models (summary statements); assay type: in vivo, mice; conditions: animals with complete regressions rechallenged with a lethal dose of tumor cells
Protocol: as §1, §2, §3

[5] = Study 17, study terminated day 116

| Compound | T − C (SA1N fibrosarcoma; Study 11, study terminated day 52) [days] | T − C (SA1N fibrosarcoma; [5]) [days] | antitumor effect in SA1N (SA1N fibrosarcoma; two independent studies) | antitumor effect in CT26 (CT26 colon carcinoma) | antitumor effect in M109 (M109 lung carcinoma [1]) | antitumor effect of single agent in EMT-6 (EMT-6 mammary carcinoma) | T − C (EMT-6 mammary carcinoma) [days] | oral efficacy ([2]; oral vs parenteral administration) | antitumor activity ([2]; paclitaxel-sensitive and paclitaxel-resistant tumor models) | mice that developed tumors after M109 rechallenge (M109 lung carcinoma [3]) | % TGI (SA1N fibrosarcoma; Study 9, calculated Day 36 (last measurement for control group)) [%] | T − C (SA1N fibrosarcoma; Study 9, study terminated day 39) [days] | % TGI (SA1N fibrosarcoma; Study 17, calculated Day 33, paclitaxel 24 mg/kg) [%] | protection against subsequent tumor rechallenge [4] | % Complete Regressions/Total # mice (CT26 colon carcinoma; IP every 4 days x3, CTLA-4 mAb 20 mg/kg days 5, 9, 13, chemotherapy days 4, 8, 12) | % Tumor-Free Mice after Initial Tumor Implantation (M109 lung carcinoma [1]; Study 40, footnote: percentage of animals that develop tumors following implantation on Day 0, chemotherapy from day 3, IP) [%] | % Tumor-free Mice (EMT-6 mammary carcinoma) [%] |
| --- | --- | --- | --- | --- | --- | --- | --- | --- | --- | --- | --- | --- | --- | --- | --- | --- | --- |
| 5beta,20-Epoxy-1,2alpha,4,7beta,10beta,13alpha-hexahydroxytax-11-en-9-one 4,10-diacetate 2-benzoate 13-ester with (2R,3S)—N-benzoyl-3-phenylisoserine [Paclitaxel] | 13 | 0 | variable effect | neither paclitaxel or ixabepilone produced any measurable antitumor activity | did not produce antitumor effects | ineffective | 0 |  |  |  |  |  |  |  |  |  |  |
| C/C(=C\c1csc(C)n1)[C@@H]1C[C@@H]2O[C@]2(C)CCC[C@H](C)[C@H](O)[C@@H](C)C(=O)C(C)(C)[C@@H](O)CC(=O)N1 (relative stereo) [Compound 1, [1S-[1R*,3R*(E),7R*,10S*,11R*,12R*,16S*]]-7,11-dihydroxy-8,8,10,12,16-pentamethyl-3-[1-methyl-2-(2-methyl-4-thiazolyl)ethenyl]-4-aza-17-oxabicyclo[14.1.0]heptadecane-5,9-dione] |  |  |  |  |  |  |  | orally efficacious | very impressive and broad spectrum of antitumor activity |  |  |  |  |  |  |  |  |
| C/C(=C\c1csc(C)n1)[C@@H]1C[C@@H]2O[C@]2(C)CCC[C@H](C)[C@H](O)[C@@H](C)C(=O)C(C)(C)[C@@H](O)CC(=O)N1 [Ixabepilone, (1S,3S,7S,10R,11S,12S,16R)-7,11-dihydroxy-8,8,10,12,16-pentamethyl-3-[(1E)-1-methyl-2-(2-methyl-4-thiazolyl)ethenyl]-17-oxa-4-azabicyclo[14.1.0]heptadecane-5,9-dione] |  | 7 |  | neither paclitaxel or ixabepilone produced any measurable antitumor activity | very effective |  | 19 |  |  | 4 out of 5 | 92 | 11 | 83 | only partial protection | 0/10 | 50 | 20 |
